Data reported in PMC11219871, “Epigenetic-based differentiation therapy for Acute Myeloid Leukemia” (Nature Communications, 2024).
Several values for one entry are separate records, joined by “and”; a condition that tells them apart may be missing. Identical values can stand only once. Like-named read-outs stand apart in the source and are kept apart here.

Key:
Assay type in all cases: cell-based, human
HL-60 = assay: Cell proliferation assay: GI50; conditions: read-out: GI50
Summary of the method: (§1)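 Suspension cells at 1 × 10^6 cells/mL were treated in triplicate, then incubated 1–3 h with MTS reagent (CellTiter 96 AQueous One) for colorimetric viable-cell read-out. After medium-only background subtraction, absorbance was expressed as % of untreated cells, and GI50 was fitted by non-linear regression.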

ML-2 [1] = assay: Cell proliferation assay: GI50
Summary of the method: as §1

MOLM-13 = assay: Cell proliferation assay: GI50
Summary of the method: as §1

MV4-11 = assay: Cell proliferation assay: GI50
Summary of the method: as §1

ML-2 [2] = assay: Acetylome analysis (Acetyl-K enrichment, LC-MS/MS); conditions: for Acetyl-K sites regulated, Number, Histone proteins / Acetyl-K sites regulated, Number, Non-histone proteins / Acetyl-K sites regulated, Percentages, Histone proteins / Acetyl-K sites regulated, Percentages, Non-histone proteins: Fig 4G; for Acetyl-K sites, Down-regulated / Acetyl-K sites, Up-regulated: Fig. 4C; for regulated Acetyl-K sites in Histone proteins / regulated Acetyl-K sites in Non-histone proteins: Fig. 4G; for percentage of Acetyl-K sites regulated: of 3618 quantified
Method: Cellular pellets were lysed for 15 min at 95 °C in 4% SDS, 100 mM Hepes/NaOH pH 8.0, containing 5 mM sodium butyrate and 5 mM Nicotinamide. After cooling down, lysates were incubated at 25 °C with 10 units of DNAse (Benzonase, Merk) and sonicated for 15 min in a Bioruptor for DNA shearing. Protein concentration was determined using microBCA, using BSA as standard. Samples were digested using on-bead protein aggregation capture (PAC) with ReSyn Biosciences MagReSyn® Hydoxyl microparticles (ratio Protein/Beads 1:5) in an automated King Fisher instrument (Thermo). Proteins were digested for 16 h at 37 C with LysC/Trypsin mix at a protein: enzyme ratio of 1:100 in 50 mM TEAB pH 8.0 (Trypsin Sequence grade, Sigma; LysC, Wako). The resulting peptides were speed-vac dried and dissolved in 100 µL of 200 mM HEPES pH 8.5.
Peptides (500 µg) were labeled with Thermo Scientific TMTpro 18plex™ Isobaric reagents for 1 h at 25 C. Reaction was quenched by adding 5% hydroxylamine for 15 min. Samples were pooled at a 1:1 ratio based on the total peptide amount, determined by comparing overall signal intensities on a regular LC-MS/MS run. The final mixture was desalted using a 500 mg Sep-Pak C18t cartridge (Waters) and dried prior to high pH reverse phase HPLC pre-fractionation.
Labeled peptides were fractionated offline through a high pH reverse phase chromatography using an Ultimate 3000 HPLC system equipped with a sample collector. Briefly, peptides were dissolved in 1200 µL of Buffer A (10 mM NH4OH) and loaded onto a XBridge BEH130 C18 column (3.5 µm, 250 mm length and 3.5 mm ID, Waters). Buffer B was composed of 10 mM NH4OH in 90% CH3CN. The following gradient was used at a flow rate of 500 µL/min: 0-50 min 0-25% B, 50-56 min 25-60% B, 56-57 min 60-90% B. One-minute fractions (500 µL) from […] were collected and neutralized with 10% formic acid. Based on the UV absorbance at 280 nm, 95% of the volume of 40 fractions was pooled in 5 fractions for Acetyl-Lysine enrichment. The 5% of these fractions was kept for proteome analysis. Pooled fractions were snap-frozen and lyophilized.
Lyophilized peptides (1.5 mg) from each pool were immuno-affinity purified with the PTMScan HS Acetyl-Lysine Motif (Ac−K) kit (Cell Signaling Technology). For each pool, three consecutive immuno-purifications (IPs) were performed using the manufacturer’s protocol in an automated King Fisher instrument (Thermo). Elution of purified peptides was performed in two consecutive steps of 50 μl of 0.15% TFA. Samples were desalted with C18 stage tips and eluates were vacuum dried and resuspended in 0.1% formic acid for subsequent analysis by LC−MS/MS.
LC-MS/MS was done by coupling an UltiMate 3000 RSLCnano LC system to an Orbitrap Exploris 480 mass spectrometer (Thermo Fisher Scientific). Samples were loaded into a trap column (Acclaim™ PepMap™ 100 C18 LC Columns 5 µm, 20 mm length) for 3 min at a flow rate of 10 µL/min in 0.1% FA. Peptides were then transferred to an EASY-Spray PepMap RSLC C18 column (Thermo) (2 µm, 75 µm x 50 cm) operated at 45 °C and separated using a 90 min effective gradient (buffer A: 0.1% FA; buffer B: 100% ACN, 0.1% FA) at a flow rate of 250 nL/min. The gradient used was, from 4% to 6% of buffer B the first 2 min, from 6% to 33% B the next 58 min, plus 10 additional minutes at 98% B.
The mass spectrometer was operated in a data-dependent mode, with an automatic switch between MS and MS/MS scans using a top 15 method. (Intensity threshold ≥ 1e4, dynamic exclusion of 20 sec and excluding charges unassigned, +1 and ≥ +7). MS spectra were acquired from 350 to 1500 m/z with a resolution of 60,000 FMHW (200 m/z). Ion peptides were isolated using a 0.7 Th window and fragmented using higher-energy collisional dissociation (HCD) with a normalized collision energy NCE of 36. MS/MS spectra were acquired with a fixed first mass of 120 m/z and a resolution of 45,000 FMHW (200 m/z). […]

[3] = ML-2, first (superseded) acetylome experiment, peer review file
[4] = distribution of acetylated sites in the acetylated proteins (Fig 4D)

| SMILES | Acetyl-K sites regulated, Number, Histone proteins (ML-2 [2]) | Acetyl-K sites regulated, Number, Non-histone proteins (ML-2 [2]) | Acetyl-K sites regulated, Percentages, Histone proteins (ML-2 [2]) | Acetyl-K sites regulated, Percentages, Non-histone proteins (ML-2 [2]) | Acetyl-K sites: Down-regulated, % (ML-2 [2]; ML-2 (Fig 4C)) | Acetyl-K sites: Down-regulated, Number (ML-2 [2]; ML-2 (Fig 4C)) | Acetyl-K sites: Non-regulated, % (ML-2 [2]; ML-2 (Fig 4C)) | Acetyl-K sites: Non-regulated, Number (ML-2 [2]; ML-2 (Fig 4C)) | Acetyl-K sites: Quantified (total number) (ML-2 [2]; ML-2 (Fig 4C)) | Acetyl-K sites: Regulated, % (ML-2 [2]; ML-2 (Fig 4C)) | Acetyl-K sites: Regulated, Number (ML-2 [2]; ML-2 (Fig 4C)) | Acetyl-K sites: Up-regulated, Number (ML-2 [2]; ML-2 (Fig 4C)) | fraction of regulated acetylation sites upregulated (ML-2 [2]; ML-2, 25% GI50, 12 h) | Acetyl-K sites, Down-regulated (ML-2 [2]; ML-2, 25% GI50, 12 h) | Acetyl-K sites, Up-regulated (ML-2 [2]; ML-2, 25% GI50, 12 h) | regulated Acetyl-K sites in Histone proteins (ML-2 [2]; ML-2, 25% GI50, 12 h) | regulated Acetyl-K sites in Non-histone proteins (ML-2 [2]; ML-2, 25% GI50, 12 h) | percentage of Acetyl-K sites regulated (ML-2 [2]; ML-2, 25% GI50, 12 h) | acetyl K-sites regulated specifically by the compound (ML-2 [2]; [3]) | fraction of regulated acetylation sites upregulated (ML-2 [2]; [3]) | further results |
| --- | --- | --- | --- | --- | --- | --- | --- | --- | --- | --- | --- | --- | --- | --- | --- | --- | --- | --- | --- | --- | --- |
| Cc1[nH]c2ccccc2c1CCNCc1ccc(/C=C/C(=O)NO)cc1 [Panobinostat, reference compound] | 52 | 587 | 8.1 | 91.9 | 8.9% | 322 | 82.3% | 2979 | 3618 | 17.7% | 639 | 317 | 49.6% | 322 | 317 | 52 | 587 | 17.7% | 232 | 53.2% | GI50 (HL-60; HL-60, replicates 1-3, nM for Panobistat and Quisinostat): 15.6 nM and 19.3 nM; GI50 (HL-60; Homo sapiens, HL-60, HL-60, replicates 1-3, nM for Panobistat and Quisinostat): 19.1 nM; GI50 (HL-60; Homo sapiens, HL-60, HL-60): 18 nM; GI50 (ML-2 [1]; Homo sapiens, ML-2, ML-2): 51.6 nM; GI50 (ML-2 [1]; Homo sapiens, ML-2, ML-2, replicates 1-3, nM for Panobistat and Quisinostat): 46.8 nM; GI50 (ML-2 [1]; ML-2, replicates 1-3, nM for Panobistat and Quisinostat): 65.3 nM and 42.7 nM; GI50 (MOLM-13; Homo sapiens, MOLM-13, MOLM-13): 32 nM; GI50 (MOLM-13; Homo sapiens, MOLM-13, MOLM-13, replicates 1-3, nM for Panobistat and Quisinostat): 23.2 nM; GI50 (MOLM-13; MOLM-13, replicates 1-3, nM for Panobistat and Quisinostat): 41.5 nM and 31.3 nM; GI50 (MV4-11; Homo sapiens, MV4-11, MV4-11): 13 nM; GI50 (MV4-11; Homo sapiens, MV4-11, MV4-11, replicates 1-3, nM for Panobistat and Quisinostat): 14.5 nM; GI50 (MV4-11; MV4-11, replicates 1-3, nM for Panobistat and Quisinostat): 13.3 nM and 11.2 nM; Number of proteins with >5 Acetyl-K sites per protein (ML-2 [2]): 11; Acetyl-K sites: Up-regulated, % (ML-2 [2]; ML-2 (Fig 4C)): 8.8%; Number of proteins with 1 Acetyl-K site per protein (ML-2 [2]; [4]): 354; Number of proteins with 2 Acetyl-K sites per protein (ML-2 [2]; [4]): 56; Number of proteins with 3 Acetyl-K sites per protein (ML-2 [2]; [4]): 25; Number of proteins with 4 Acetyl-K sites per protein (ML-2 [2]; [4]): 6 |
| O=C(CCCCCCC(=O)Nc1ccccc1)NO [Vorinostat, reference compound] | 40 | 469 | 7.9 | 92.1 | 7.7% | 232 | 85.9% | 3109 | 3618 | 14.1% | 509 | 277 | 54.4% | 232 | 277 | 40 | 469 | 14.1% | 121 | 37.3% | GI50 (HL-60; HL-60, replicates 1-3, µM for the other inhibitors): 4900 nM and 5600 nM; GI50 (HL-60; Homo sapiens, HL-60, 48 h): 5200 nM; GI50 (HL-60; Homo sapiens, HL-60, HL-60, replicates 1-3, µM for the other inhibitors): 5100 nM; GI50 (ML-2 [1]; Homo sapiens, ML-2, 48 h): 4500 nM; GI50 (ML-2 [1]; Homo sapiens, ML-2, ML-2, replicates 1-3, µM for the other inhibitors): 4300 nM; GI50 (ML-2 [1]; ML-2, replicates 1-3, µM for the other inhibitors): 4200 nM and 5000 nM; GI50 (MOLM-13; Homo sapiens, MOLM-13, 48 h): 3200 nM; GI50 (MOLM-13; Homo sapiens, MOLM-13, MOLM-13, replicates 1-3, µM for the other inhibitors): 3100 nM; GI50 (MOLM-13; MOLM-13, replicates 1-3, µM for the other inhibitors): 3000 nM and 3600 nM; GI50 (MV4-11; Homo sapiens, MV4-11, 48 h): 2500 nM; GI50 (MV4-11; Homo sapiens, MV4-11, MV4-11, replicates 1-3, µM for the other inhibitors): 2700 nM; GI50 (MV4-11; MV4-11, replicates 1-3, µM for the other inhibitors): 2900 nM and 2000 nM; Number of proteins with 1 Acetyl-K site per protein (ML-2 [2]; [4]): 298; Number of proteins with 2 Acetyl-K sites per protein (ML-2 [2]; [4]): 54; Number of proteins with 3 Acetyl-K sites per protein (ML-2 [2]; [4]): 16; Number of proteins with 4 Acetyl-K sites per protein (ML-2 [2]; [4]): 5; Number of proteins with >5 Acetyl-K sites per protein (ML-2 [2]; [4]): 6 |
